Results from PubChem BioAssay (NCI).
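Compound exposure: 48 hours, 5 concentrations, 96-well plates. Here, GI50 denotes the concentration required for 50% inhibition of growth. The concentration for full growth arrest is given as TGI.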

What was measured:
Assay in all cases: NCI-60 cell line screen, 48 h
KM12 colon = tested on: KM12 colon
MCF7 breast = tested on: MCF7 breast
SNB-75 CNS = tested on: SNB-75 CNS
UO-31 renal = tested on: UO-31 renal
PC-3 prostate = tested on: PC-3 prostate
SF-539 CNS = tested on: SF-539 CNS
HCT-116 colon = tested on: HCT-116 colon
SK-MEL-2 melanoma = tested on: SK-MEL-2 melanoma
RPMI-8226 leukemia = tested on: RPMI-8226 leukemia
HOP-92 NSCLC = tested on: HOP-92 NSCLC

## O=C(Nc1ccc(-n2cc(-c3ccncc3)c(-c3ccc(O)c(Cl)c3)n2)cc1)c1ccc(Cl)c(C(F)(F)F)c1
KM12 colon
  GI50: 1930 nM
  TGI: > 50000 nM
MCF7 breast
  GI50: 2400 nM
  TGI: > 50000 nM
SNB-75 CNS
  GI50: 2230 nM
  TGI: > 50000 nM
UO-31 renal
  GI50: 2650 nM
  TGI: 28300 nM
PC-3 prostate
  GI50: 1370 nM
  TGI: > 50000 nM
SF-539 CNS
  GI50: 960 nM
  TGI: 3410 nM
HCT-116 colon
  GI50: 1750 nM
  TGI: 7040 nM
SK-MEL-2 melanoma
  GI50: 1220 nM
  TGI: 3320 nM
RPMI-8226 leukemia
  GI50: 650 nM
  TGI: 2520 nM
HOP-92 NSCLC
  GI50: 1070 nM
  TGI: 4550 nM
